Patent US8846730B2, “Compounds as cannabinoid receptor ligands” (priority 2008, dated 2014)
Where two headings read alike, the source gives them in different places.

Key:
[1] = biological target: rat CB2 receptors (HEK cells) (Rattus norvegicus (Rat), UniProt Q9QZN9); assay: rat CB2 cyclase functional assay (HitHunter cAMP); assay type: cell-based
Protocol: The cyclase functional assays were performed using the HitHunter™ cAMP assay kit from DiscoveRx (Fremont, Calif.) according to vendor's protocol. Briefly, HEK cells expressing CB2 or CB1 receptors (rat or human) were detached using cell dissociation buffer (Invitrogen, Carlsbad, Calif.), dispersed and placed in suspension at 10,000 cells per well in 96 well plates prior to the assay. Cell suspensions were incubated at 37° C. for 20 min with variable concentrations of test ligands and or 10 μM CP 55,940-positive control in the presence of a fixed concentration of forskolin (18 μM for rat CB2 and 37 μM for rat CB1) in Dulbescco's phosphate-buffered saline (Invitrogen, Carlsbad, Calif.) supplemented with bovine serum albumin (0.01% final concentration). The reactions were terminated by the addition of lysis buffer and the luminescence was detected following the procedure according to the manufacturer's instructions. EC50 values were calculated using sigmoidal dose-response curve fitting from Prism (GraphPad).

human CB2 receptors = human CB2 receptors (Homo sapiens (Human), UniProt P34972); assay: human CB2 radioligand binding assay ([3H]CP 55,940 competition); conditions: HEK293 membranes, 0.5 nM [3H]CP 55,940; read-out: human CB2 (Ki)
Summary of the method: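 Membranes from HEK293 cells stably expressing human CB2 (5 μg protein/well) competed against 0.5 nM [3H]CP 55,940 with five concentrations of test ligand (0.01 nM to 10 μM), pH 7.4 Tris buffer with BSA, 90 min at 30 °C. Filtration and scintillation counting; nonspecific binding with 10 μM unlabeled CP 55,940.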

[2] = biological target: rat CB1 receptors (HEK cells) (Rattus norvegicus (Rat), UniProt P20272); assay: rat CB1 cyclase functional assay (HitHunter cAMP); assay type: cell-based
rat CB2 receptors = rat CB2 receptors (Rattus norvegicus (Rat), UniProt Q9QZN9); assay: rat CB2 radioligand binding assay ([3H]CP 55,940 competition); conditions: HEK293 membranes, 0.5 nM [3H]CP 55,940
Summary of the method: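 Membranes from HEK293 cells stably expressing rat CB2 (20 μg protein/well) were incubated 45 min at 30 °C with 0.5 nM [3H]CP 55,940 and five displacer concentrations, in pH 7.4 Tris buffer with 0.5 mg/mL BSA. Bound radioactivity was measured by filtration. Nonspecific binding was defined with 10 μM unlabeled CP 55,940.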

[3] = HEK cells, forskolin 18 μM, read-out: rat CB2 cyclase (EC50)
[4] = HEK cells, forskolin 37 μM, read-out: rCB1 cyclase (EC50)

Chain of rat CB1 receptors (HEK cells) (P20272 whole entry): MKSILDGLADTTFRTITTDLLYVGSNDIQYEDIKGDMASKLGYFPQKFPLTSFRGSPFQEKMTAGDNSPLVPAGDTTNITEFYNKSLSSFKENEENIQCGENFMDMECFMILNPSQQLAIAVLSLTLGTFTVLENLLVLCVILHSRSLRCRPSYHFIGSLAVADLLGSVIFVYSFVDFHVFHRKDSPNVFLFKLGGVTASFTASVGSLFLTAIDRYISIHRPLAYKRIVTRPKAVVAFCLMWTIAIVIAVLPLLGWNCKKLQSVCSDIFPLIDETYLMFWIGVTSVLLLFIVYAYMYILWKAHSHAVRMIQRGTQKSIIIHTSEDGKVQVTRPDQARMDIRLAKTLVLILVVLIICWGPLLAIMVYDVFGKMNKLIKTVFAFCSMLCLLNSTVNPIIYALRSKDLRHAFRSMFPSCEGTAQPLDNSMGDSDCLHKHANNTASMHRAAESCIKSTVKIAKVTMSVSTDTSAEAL
Chain of human CB2 receptors (P34972 whole entry): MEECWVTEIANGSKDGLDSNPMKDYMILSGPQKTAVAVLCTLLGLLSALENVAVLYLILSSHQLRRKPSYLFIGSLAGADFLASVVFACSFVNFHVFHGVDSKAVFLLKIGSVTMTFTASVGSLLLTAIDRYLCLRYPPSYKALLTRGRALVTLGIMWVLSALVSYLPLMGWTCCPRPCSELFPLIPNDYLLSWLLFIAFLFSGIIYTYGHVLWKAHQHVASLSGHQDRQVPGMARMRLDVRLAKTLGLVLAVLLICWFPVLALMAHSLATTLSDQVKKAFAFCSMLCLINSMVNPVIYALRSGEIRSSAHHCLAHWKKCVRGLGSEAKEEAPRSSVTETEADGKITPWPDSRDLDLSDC

SMILES	EC50 [1, 3] [nM]	Ki (human CB2 receptors) [nM]	EC50 [2, 4] [nM]	Ki (rat CB2 receptors) [nM]	EC50 [2] [nM]	EC50 [1] [nM]
CN1CCN(C)C(COc2ccc(C(F)(F)F)cc2C(=O)/N=c2\sc(C(C)(C)C)cn2C[C@@H]2CCCO2)C1 (stereo partly shown) [Example 34, N-[(2Z)-5-tert-butyl-3-[(25)-tetrahydrofuran-2-ylmethyl]-1,3-thiazol-2(3H)-ylidene]-2-[(1,4-dimethylpiperazin-2-yl)methoxy]-5-(trifluoromethyl)benzamide]	0.3	25	4090	13		
CC(C)(C)c1cn(C[C@H]2CCCO2)/c(=N/C(=O)c2cc(C(F)(F)F)ccc2OC[C@H]2CCN2)s1 [Example 1, 2-[(2R)-azetidin-2-ylmethoxy]-N-[(2Z)-5-tert-butyl-3-[(2R)-tetrahydrofuran-2-ylmethyl]-1,3-thiazol-2(3H)-ylidene]-5-(trifluoromethyl)benzamide]	2.26	115		15	9330	
CC(C)(C)c1cn(C[C@H]2CCCO2)/c(=N/C(=O)c2cc(C(F)(F)F)ccc2OC[C@@H]2CNCCO2)s1 [Example 66, N-[(2Z)-5-tert-butyl-3-[(2R)-tetrahydrofuran-2-ylmethyl]-1,3-thiazol-2(3H)-ylidene]-2-[(2S)-morpholin-2-ylmethoxy]-5-(trifluoromethyl)benzamide]		21		5.1	5050	0.37
CC(C)(C)c1cn(C[C@H]2CCCO2)/c(=N/C(=O)c2cc(C(F)(F)F)ccc2OCc2cnco2)s1 [Example 37, N-[(2Z)-5-tert-butyl-3-[(2R)-tetrahydrofuran-2-ylmethyl]-1,3-thiazol-2(3H)-ylidene]-2-(1,3-oxazol-5-ylmethoxy)-5-(trifluoromethyl)benzamide]		26		9	7550	0.5
CCN1CCC[C@H]1COc1ccc(C(F)(F)F)cc1C(=O)/N=c1\sc(C(C)(C)C)cn1C[C@H]1CCCO1 [Example 45, N-[(2Z)-5-tert-butyl-3-[(2R)-tetrahydrofuran-2-ylmethyl]-1,3-thiazol-2(3H)-ylidene]-2-{[(2S)-1-ethylpyrrolidin-2-yl]methoxy}-5-(trifluoromethyl)benzamide]	0.83	8.2		8.6	5010	
CC(C)(C)c1cn(C[C@H]2CCCO2)/c(=N/C(=O)c2cc(C(F)(F)F)ccc2OC[C@H]2CCCO2)s1 [Example 22, N-[(2Z)-5-tert-butyl-3-[(2R)-tetrahydrofuran-2-ylmethyl]-1,3-thiazol-2(3H)-ylidene]-2-[(2R)-tetrahydrofuran-2-ylmethoxy]-5-(trifluoromethyl)benzamide]		3		0.5	3230	0.07
CN(CCOc1ccc(C(F)(F)F)cc1C(=O)/N=c1\sc(C(C)(C)C)cn1C[C@H]1CCCO1)c1ccccc1 [Example 35, N-[(2Z)-5-tert-butyl-3-[(2R)-tetrahydrofuran-2-ylmethyl]-1,3-thiazol-2(3H)-ylidene]-2-{2-[methyl(phenyl)amino]ethoxy}-5-(trifluoromethyl)benzamide]	6.31	14		6.5	9490	
CC(C)(C)c1cn(C[C@H]2CCCO2)/c(=N/C(=O)c2cc(C(F)(F)F)ccc2OC[C@@H]2CCCCN2)s1 [Example 4]	0.4	0.7	395	0.6		
CC(C)(C)c1cn(C[C@H]2CCCO2)/c(=N/C(=O)c2cc(C(F)(F)F)ccc2OC[C@@H]2CCCN2S(C)(=O)=O)s1 [Example 48, N-[(2Z)-5-tert-butyl-3-[(2R)-tetrahydrofuran-2-ylmethyl]-1,3-thiazol-2(3H)-ylidene]-2-{[(2S)-1-(methylsulfonyl)pyrrolidin-2-yl]methoxy}-5-(trifluoromethyl)benzamide]	0.39	16		3	8650	
COCCn1cc(C(C)(C)C)s/c1=N\C(=O)c1cc(C(F)(F)F)ccc1OCc1cnccn1 [Example 41, N-[(2Z)-5-tert-butyl-3-(2-methoxyethyl)-1,3-thiazol-2(3H)-ylidene]-2-(pyrazin-2-ylmethoxy)-5-(trifluoromethyl)benzamide]		45		14	5700	4.49
CC(C)(C)c1cn(C[C@H]2CCCO2)/c(=N/C(=O)c2cc(C(F)(F)F)ccc2OCc2cccnc2)s1 [Example 21, N-[(2Z)-5-tert-butyl-3-[(2R)-tetrahydrofuran-2-ylmethyl]-1,3-thiazol-2(3H)-ylidene]-2-(pyridin-3-ylmethoxy)-5-(trifluoromethyl)benzamide]		13		10	6220	0.21
CC(C)(C)c1cn(C[C@H]2CCCO2)/c(=N/C(=O)c2cc(C(F)(F)F)ccc2OCc2ccccn2)s1 [Example 18, N-[(2Z)-5-tert-butyl-3-[(2R)-tetrahydrofuran-2-ylmethyl]-1,3-thiazol-2(3H)-ylidene]-2-(pyridin-2-ylmethoxy)-5-(trifluoromethyl)benzamide]	1.02	20		6	> 27000	
CN1CC[C@H](COc2ccc(C(F)(F)F)cc2C(=O)/N=c2\sc(C(C)(C)C)cn2C[C@H]2CCCO2)C1 [Example 31, N-[(2Z)-5-tert-butyl-3-[(2R)-tetrahydrofuran-2-ylmethyl]-1,3-thiazol-2(3H)-ylidene]-2-{[(3 S)-1-methylpyrrolidin-3-yl]methoxy}-5-(trifluoromethyl)benzamide]		92		84	10700	3.58
CC(C)(C)c1cn(C[C@H]2CCCO2)/c(=N/C(=O)c2cc(C(F)(F)F)ccc2OCc2cccc[n+]2[O-])s1 [Example 20, N-[(2Z)-5-tert-butyl-3-[(2R)-tetrahydrofuran-2-ylmethyl]-1,3-thiazol-2(3H)-ylidene]-2-[(1-oxidopyridin-2-yl)methoxy]-5-(trifluoromethyl)benzamide]	0.47	209		51	7980	
CN1C[C@H](F)C[C@H]1COc1ccc(C(F)(F)F)cc1C(=O)/N=c1\sc(C(C)(C)C)cn1C[C@H]1CCCO1 [Example 54, N-[(2Z)-5-tert-butyl-3-[(2R)-tetrahydrofuran-2-ylmethyl]-1,3-thiazol-2(3H)-ylidene]-2-{[(2S,4R)-4-fluoro-1-methylpyrrolidin-2-yl]methoxy}-5-(trifluoromethyl)benzamide]	0.15	2		1.5	362	
CN1C[C@@H](F)C[C@H]1COc1ccc(C(F)(F)F)cc1C(=O)/N=c1\sc(C(C)(C)C)cn1C[C@H]1CCCO1 [Example 53, N-[(2Z)-5-tert-butyl-3-[(2R)-tetrahydrofuran-2-ylmethyl]-1,3-thiazol-2(3H)-ylidene]-2-{[(2S,4S)-4-fluoro-1-methylpyrrolidin-2-yl]methoxy}-5-(trifluoromethyl)benzamide]	0.12	3		3.6	1130	
CN1CC(COc2ccc(C(F)(F)F)cc2C(=O)/N=c2\sc(C(C)(C)C)cn2C[C@H]2CCCO2)C1 [Example 12, N-[(2Z)-5-tert-butyl-3-[(2R)-tetrahydrofuran-2-ylmethyl]-1,3-thiazol-2(3H)-ylidene]-2-[(1-methylazetidin-3-yl)methoxy]-5-(trifluoromethyl)benzamide]	2.07	208		28	10800	
CC(C)(C)c1cn(C[C@H]2CCCO2)/c(=N/C(=O)c2cc(C(F)(F)F)ccc2OCc2nccs2)s1 [Example 38, N-[(2Z)-5-tert-butyl-3-[(2R)-tetrahydrofuran-2-ylmethyl]-1,3-thiazol-2(3H)-ylidene]-2-(1,3-thiazol-2-ylmethoxy)-5-(trifluoromethyl)benzamide]		5.5		2.5	2000	0.33
CN1CCCC[C@@H]1COc1ccc(C(F)(F)F)cc1C(=O)/N=c1\sc(C(C)(C)C)cn1C[C@H]1CCCO1 [Example 7, N-[(2Z)-5-tert-butyl-3-[(2R)-tetrahydrofuran-2-ylmethyl]-1,3-thiazol-2(3H)-ylidene]-2-{[(2R)-1-methylpiperidin-2-yl]methoxy}-5-(trifluoromethyl)benzamide]	0.38	33		19	4700	
